# Laboratory results reported in the supplement of paper PMC11451515.
# Tested on: NOMO1
# Assay: cell viability relative to DMSO control; higher = less cytotoxic
# Details: 48 h
# Method in brief: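 Viability values are per-plate percentages of DMSO wells, with background from cell-free wells. Library compounds in DMSO were pin-dosed, in an 11-point threefold series from 47 μM to 0.79 nM, onto NOMO1 or SEM (500 cells/well) or P12-Ichikawa (1000 cells/well) leukemia cells in 1536-well plates (5 μl). Those cells had been adapted for at least four passages in each medium, and CellTiter-Glo One luminescence was read after 48 h at 37°C.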
smiles,measurement,setting,value
O=C1NC(=O)/C(=C/c2cccc(C(F)(F)F)c2)S1,cell viability,"HPLM + 10% dialyzed FBS, 0.000781 µM",114%
same,cell viability,"HPLM + 10% dialyzed FBS, 0.00234 µM",95.1%
same,cell viability,"HPLM + 10% dialyzed FBS, 0.00702 µM",96.8%
same,cell viability,"HPLM + 10% dialyzed FBS, 0.0211 µM",113%
same,cell viability,"HPLM + 10% dialyzed FBS, 0.0632 µM",102%
same,cell viability,"HPLM + 10% dialyzed FBS, 0.19 µM",98.4%
same,cell viability,"HPLM + 10% dialyzed FBS, 0.569 µM",108%
same,cell viability,"HPLM + 10% dialyzed FBS, 1.71 µM",99.1%
same,cell viability,"HPLM + 10% dialyzed FBS, 5.12 µM",92.8%
same,cell viability,"HPLM + 10% dialyzed FBS, 15.4 µM",96.9%
same,cell viability,"HPLM + 10% dialyzed FBS, 46.1 µM",90%
same,cell viability,"RPMI 5 mM glucose + 10% FBS, 0.000781 µM",90.3%
same,cell viability,"RPMI 5 mM glucose + 10% FBS, 0.00234 µM",90.2%
same,cell viability,"RPMI 5 mM glucose + 10% FBS, 0.00702 µM",94.1%
same,cell viability,"RPMI 5 mM glucose + 10% FBS, 0.0211 µM",101%
same,cell viability,"RPMI 5 mM glucose + 10% FBS, 0.0632 µM",106%
same,cell viability,"RPMI 5 mM glucose + 10% FBS, 0.19 µM",97.8%
same,cell viability,"RPMI 5 mM glucose + 10% FBS, 0.569 µM",97.8%
same,cell viability,"RPMI 5 mM glucose + 10% FBS, 1.71 µM",93.2%
same,cell viability,"RPMI 5 mM glucose + 10% FBS, 5.12 µM",101%
same,cell viability,"RPMI 5 mM glucose + 10% FBS, 15.4 µM",96.5%
same,cell viability,"RPMI 5 mM glucose + 10% FBS, 46.1 µM",80.1%
same,cell viability,"RPMI 5 mM glucose + 10% dialyzed FBS, 0.000781 µM",95.5%
same,cell viability,"RPMI 5 mM glucose + 10% dialyzed FBS, 0.00234 µM",99.6%
same,cell viability,"RPMI 5 mM glucose + 10% dialyzed FBS, 0.00702 µM",99%
same,cell viability,"RPMI 5 mM glucose + 10% dialyzed FBS, 0.0211 µM",104%
same,cell viability,"RPMI 5 mM glucose + 10% dialyzed FBS, 0.0632 µM",93.1%
same,cell viability,"RPMI 5 mM glucose + 10% dialyzed FBS, 0.19 µM",92.9%
same,cell viability,"RPMI 5 mM glucose + 10% dialyzed FBS, 0.569 µM",93.2%
same,cell viability,"RPMI 5 mM glucose + 10% dialyzed FBS, 1.71 µM",108%
same,cell viability,"RPMI 5 mM glucose + 10% dialyzed FBS, 5.12 µM",103%
same,cell viability,"RPMI 5 mM glucose + 10% dialyzed FBS, 15.4 µM",87.9%
same,cell viability,"RPMI 5 mM glucose + 10% dialyzed FBS, 46.1 µM",92.2%
